Patent US20230091047A1 (priority 2019, published 2023)
Where two headings read alike, the source gives them in different places.

Legend:
[1] = tested on: HBV (HepG2.117 cell line, inducibly HBV producing); assay: Anti-HBV activity: intracellular HBV DNA by real-time PCR in HepG2.117 cells after 3 days of treatment; format: cell-based, hepatitis B virus
Outline: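 Antiviral effect is expressed through intracellular HBV DNA levels, determined by real-time PCR with a virus-specific probe. These levels were measured after 3 days of treatment with compound dilutions, in HepG2.117 cells induced to replicate HBV.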

[2] = tested on: HepG2 cells; assay: in vitro; format: cell-based; details: HepG2 or HepG2.117 cells, ATPlite, mean value, read-out: CC50 (μM, mean value)
Outline: (§1)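 Luminescent ATP quantitation served as the viability endpoint following a 3- or 4-day incubation with test compounds.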

[3] = in vitro; format: cell-based; details: human, HepG2 or HepG2.117 cells, mean value
Outline: as §1

[4] = HepG2.117 cells, intracellular HBV DNA by real-time PCR, 3 days of treatment, mean value; read-out: EC50 (μM, mean value)
[5] = 3-days incubation (not marked with *)
[6] = HepG2.117 cells, 3 days of treatment, intracellular HBV DNA by real-time PCR; mean value; read-out: EC50 (μM, mean value)
[7] = 3-days incubation (unmarked values)
[8] = Hepatitis B virus, HepG2.117, 72 h, HepG2.117 cells, intracellular HBV DNA by real-time PCR, 3 days of treatment, mean value; read-out: EC50 (μM, mean value)
[9] = ATPlite, 3-days incubation (not marked with *)
[10] = Hepatitis B virus, HepG2.117, 72 h, HepG2.117 cells, 3 days of treatment, intracellular HBV DNA by real-time PCR; mean value; read-out: EC50 (μM, mean value)
[11] = 3-days incubation (unmarked values), ATPlite

Cc1cc(-c2ncc[nH]2)ccc1-n1c(NC(C)C)nc2c(c1=O)C[C@@H](C)N(C(=O)c1ccc(Cl)c(Cl)c1)C2 (single isomer, unassigned) [Compound C399a]
EC50 [1, 4]: 0.14 µM | CC50 [2, 5]: 27.7 µM

CNC(=O)c1ccc(-n2c(NC(C)C)nc3c(c2=O)C[C@@H](C)N(C(=O)c2ccc(Cl)c(Cl)c2)C3)c(C(C)C)c1 (single isomer, unassigned) [Compound C420a]
EC50 [1, 4]: 0.72 µM | CC50 [2, 5]: 21.7 µM

CNC(=O)c1ccc(-n2c(NC(C)C)nc3c(c2=O)C[C@@H](C)N(C(=O)c2ccc(Cl)c(C(F)F)c2)C3)c(Cl)c1 (single isomer, unassigned) [Compound C685b]
EC50 [1, 4]: 0.03 µM | CC50 [2, 5]: > 50 µM

CNc1noc2cc(-n3c(NC(C)C)nc4c(c3=O)C[C@@H](C)N(C(=O)c3ccc(Cl)c(Cl)c3)C4)c(C)cc12 (single isomer, unassigned) [Compound C447b]
EC50 [1, 4]: 0.05 µM | CC50 [2, 5]: > 50 µM

CNC(=O)c1ccc(-n2c(NC(C)C)nc3c(c2=O)C[C@@H](C)N(C(=O)c2ccc(Cl)c(C(F)(F)F)c2)C3)c(C(F)F)c1 (single isomer, unassigned) [Compound C669b]
EC50 [1, 4]: 0.04 µM | CC50 [2, 5]: > 50 µM

CNC(=O)c1ccc(-n2c(N[C@H]3C[C@@H]3c3ccc(OC)cc3)nc3c(c2=O)C[C@@H](C)N(C(=O)c2ccc(Cl)c(Cl)c2)C3)cc1 [Compound C452b]
EC50 [1, 4]: > 10 µM | CC50 [2, 5]: > 50 µM

CNC(=O)c1ccc(-n2c(NC(C)C)nc3c(c2=O)C[C@@H](C)N(C(=O)c2ccc(Cl)c(Cl)c2)C3)c(Cl)c1 (atropisomer, axis not shown) [Compound C293b, 3-chloro-4-[(6R)-7-(3,4-dichlorobenzoyl)-6-methyl-4-oxo-2-[(propan-2-yl)amino]-5,6,7,8-tetrahydropyrido[3,4-d]pyrimidin-3(4H)-yl]-N-methylbenzamide]
EC50 [1, 6]: 0.06 µM | CC50 [2, 7]: 27.1 µM

COc1ccccc1-n1c(NCc2ccc3c(c2)OCO3)nc2c(c1=O)CCN(C(=O)c1ccc(Cl)c(Cl)c1)C2 (single isomer, unassigned) [Compound C26a, 2-{[(2H-1,3-benzodioxol-5-yl)methyl]amino}-7-(3,4-dichlorobenzoyl)-3-(2-methoxyphenyl)-5,6,7,8-tetrahydropyrido[3,4-d]pyrimidin-4(3H)-one]
EC50 [1, 6]: 1.42 µM | CC50 [2, 7]: > 50 µM

CNC(=O)c1ccc(-n2c(N[C@@H](C)C3CC3)nc3c(c2=O)C[C@@H](C)N(C(=O)c2ccc(Cl)c(C(F)(F)F)c2)C3)c(Cl)c1 (single isomer, unassigned) [Compound C676b]
EC50 [1, 4]: 0.02 µM | CC50 [2, 5]: 28.7 µM

CNC(=O)c1ccc(-n2c(N[C@@H](C)C3CC3)nc3c(c2=O)C[C@@H](C)N(C(=O)c2ccc(Cl)c(Cl)c2)C3)c(Cl)c1 (single isomer, unassigned) [Compound C387b]
EC50 [1, 4]: 0.06 µM | CC50 [2, 5]: 36.8 µM

CNC(=O)c1ccc(-n2c(NC(C)C)nc3c(c2=O)C[C@@H](C)N(C(=O)c2ccc(Cl)c(C(F)(F)F)c2)C3)c(OC)c1 (single isomer, unassigned) [Compound C643b]
EC50 [1, 4]: 0.05 µM | CC50 [2, 5]: > 50 µM

CNC(=O)c1ccc(-n2c(NC(C)C)nc3c(c2=O)C[C@@H](C)N(C(=O)c2ccc(Cl)c(C(F)(F)F)c2)C3)c(C2CC2)c1 (single isomer, unassigned) [Compound C661a]
EC50 [1, 4]: 0.07 µM | CC50 [2, 5]: > 50 µM

CNc1noc2cc(-n3c(NC(C)C)nc4c(c3=O)C[C@@H](C)N(C(=O)c3ccc(Cl)c(Cl)c3)C4)c(C)cc12 (single isomer, unassigned) [Compound C447a]
EC50 [1, 4]: 0.23 µM | CC50 [2, 5]: > 50 µM

COc1ccccc1-n1c(NCc2ccc3c(c2)OCO3)nc2c(c1=O)CCN(C(=O)c1ccc(Cl)c(Cl)c1)C2 (single isomer, unassigned) [Compound C26b, 2-{[(2H-1,3-benzodioxol-5-yl)methyl]amino}-7-(3,4-dichlorobenzoyl)-3-(2-methoxyphenyl)-5,6,7,8-tetrahydropyrido[3,4-d]pyrimidin-4(3H)-one]
EC50 [1, 6]: 1.04 µM | CC50 [2, 7]: > 50 µM

CNC(=O)c1ccc(-n2c(N[C@@H](C)c3ccccc3)nc3c(c2=O)C[C@@H](C)N(C(=O)c2ccc(Cl)c(Cl)c2)C3)c(Cl)c1 [Compound C386]
EC50 [1, 4]: 0.12 µM | CC50 [2, 5]: > 50 µM

CNC(=O)c1ccc(-n2c(NC(C)C)nc3c(c2=O)C[C@@H](C)N(C(=O)c2ccc(Cl)c(Cl)c2)C3)c(Cl)c1 (single isomer, unassigned) [Compound C293a]
EC50 [1, 6]: 0.06 µM | CC50 [2, 7]: 33.4 µM

CNC(=O)c1cnc(-n2c(N[C@@H](C)c3ccc(OC(F)(F)F)cc3)nc3c(c2=O)C[C@@H](C)N(C(=O)c2ccc(Cl)c(Cl)c2)C3)cn1 [Compound C617]
EC50 [1, 4]: 0.08 µM | CC50 [2, 5]: > 50 µM

CNC(=O)c1ccc(-n2c(NC(C)C)nc3c(c2=O)C[C@@H](C)N(C(=O)c2ccc(Cl)c(Cl)c2)C3)c(C)c1 [Compound C300b, 4-[(6R)-7-(3,4-dichlorobenzoyl)-6-methyl-4-oxo-2-[(propan-2-yl)amino]-5,6,7,8-tetrahydropyrido[3,4-d]pyrimidin-3(4H)-yl]-N,3-dimethylbenzamide]
EC50 [1, 6]: 0.09 µM | CC50 [2, 7]: > 50 µM

CNC(=O)c1ccc(-n2c(NC(C)C)nc3c(c2=O)C[C@@H](C)N(C(=O)c2ccc(Cl)c(Cl)c2)C3)c(C(F)(F)F)c1 (single isomer, unassigned) [Compound C340b]
EC50 [1, 6]: 0.39 µM | CC50 [2, 7]: 29.8 µM

COc1ccccc1-n1c(N[C@H](C)C(F)(F)F)nc2c(c1=O)CCN(C(=O)c1ccc(Cl)c(Cl)c1)C2 (single isomer, unassigned) [Compound C101b]
EC50 [1, 6]: 9.59 µM | CC50 [2, 7]: 33.2 µM

CC(C)Nc1nc2c(c(=O)n1-c1ccc(S(C)(=O)=O)cc1)C[C@H](C)N(C(=O)c1ccc(Cl)c(Cl)c1)C2 [Compound C141, (6S)-7-(3,4-dichlorobenzoyl)-3-[4-(methanesulfonyl)phenyl]-6-methyl-2-[(propan-2-yl)amino]-5,6,7,8-tetrahydropyrido[3,4-d]pyrimidin-4(3H)-one]
CC50 [2, 7]: > 50 µM

CNC(=O)c1ccc(-n2c(N[C@@H]3C[C@H]3c3ccc(OC)cc3)nc3c(c2=O)C[C@@H](C)N(C(=O)c2ccc(Cl)c(Cl)c2)C3)cc1 (single isomer, unassigned) [Compound C452a]
EC50 [1, 8]: 1.44 µM | CC50 at 3 days [3, 9]: > 25 µM

COc1ccc(CNc2nc3c(c(=O)n2-c2ccc(C(C)=O)cc2)CCN(C(=O)c2ccc(Cl)c(Cl)c2)C3)cc1 [Compound C126, 3-(4-acetylphenyl)-7-(3,4-dichlorobenzoyl)-2-{[(4-methoxyphenyl)methyl]amino}-5,6,7,8-tetrahydropyrido[3,4-d]pyrimidin-4(3H)-one]
EC50 [1, 10]: 1.51 µM | CC50 at 3 days [3, 11]: > 50 µM

CNC(=O)c1ccc(-n2c(NC(C)c3ccc(C(F)(F)F)s3)nc3c(c2=O)C[C@@H](C)N(C(=O)c2ccc(Cl)c(Cl)c2)C3)cc1 (stereo partly drawn) [Compound C596]
EC50 [1, 8]: 0.4 µM | CC50 at 3 days [3, 9]: 25.5 µM

CNC(=O)c1ccc(-n2c(N[C@@H]3CCOc4cc(OC)ccc43)nc3c(c2=O)C[C@@H](C)N(C(=O)c2ccc(Cl)c(Cl)c2)C3)cc1 (single isomer, unassigned) [Compound C527a]
EC50 [1, 8]: 0.39 µM | CC50 at 3 days [3, 9]: > 50 µM

CC(C)Nc1nc2c(c(=O)n1-c1ccc(C(=O)NCC(C)(C)C(=O)O)cc1)C[C@@H](C)N(C(=O)c1ccc(Cl)c(Cl)c1)C2 [Compound C214, 3-{4-[(6R)-7-(3,4-dichlorobenzoyl)-6-methyl-4-oxo-2-[(propan-2-yl)amino]-5,6,7,8-tetrahydropyrido[3,4-d]pyrimidin-3(4H)-yl]benzamido}-2,2-dimethylpropanoic acid]
EC50 [1, 10]: 14.6 µM | CC50 at 3 days [3, 11]: > 50 µM

CNC(=O)c1ccc(-n2c(N[C@H](C)c3cccnc3)nc3c(c2=O)C[C@@H](C)N(C(=O)c2ccc(Cl)c(Cl)c2)C3)cc1 (single isomer, unassigned) [Compound C377a]
EC50 [1, 8]: 0.82 µM | CC50 at 3 days [3, 9]: > 50 µM

COC(=O)[C@H]1CC[C@H](n2c(NC(C)C)nc3c(c2=O)C[C@@H](C)N(C(=O)c2ccc(Cl)c(Cl)c2)C3)CC1 [Compound C370]
EC50 [1, 10]: 0.85 µM | CC50 at 3 days [3, 11]: > 50 µM

CC(=O)Nc1ccc(-n2c(N[C@@H](C)c3ccc4[nH]ncc4c3)nc3c(c2=O)C[C@@H](C)N(C(=O)c2ccc(Cl)c(Cl)c2)C3)cc1 (single isomer, unassigned) [Compound C462b]
EC50 [1, 8]: 0.37 µM | CC50 at 3 days [3, 9]: > 50 µM

CNC(=O)c1ccc(-n2c(NC(C)(C)C)nc3c(c2=O)C[C@@H](C)N(C(=O)c2ccc(Cl)c(C(F)(F)F)c2)C3)c(Cl)c1 (single isomer, unassigned) [Compound C677a]
EC50 [1, 10]: 0.02 µM | CC50 at 3 days ([3]; 3-days incubation (unmarked values), ATPlite viability): > 50 µM

CNC(=O)c1ccc(-n2c(NCc3cnnn3C)nc3c(c2=O)C[C@@H](C)N(C(=O)c2ccc(Cl)c(Cl)c2)C3)cc1 [Compound C557]
EC50 [1, 8]: > 25 µM | CC50 at 3 days [3, 9]: > 50 µM

CNC(=O)c1ccc(-n2c(N[C@@H](C)c3ccccc3C(F)(F)F)nc3c(c2=O)C[C@@H](C)N(C(=O)c2ccc(Cl)c(Cl)c2)C3)cc1 [Compound C443]
EC50 [1, 8]: 0.45 µM | CC50 at 3 days [3, 9]: 7.2 µM
